Measurements published in PubChem BioAssay (NCI).
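In this assay, cells in 96-well plates receive the compound at five concentrations for 48 hours. Endpoints are linearly interpolated between the surrounding concentrations. Definition used: TGI = concentration required for complete inhibition of growth.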

Legend:
Assay in all cases: NCI tumour cell line growth inhibition, 48 h
[1] = tested on: 786-0 renal
[2] = tested on: A498 renal
[3] = tested on: A549 NSCLC
[4] = tested on: ACHN renal
[5] = tested on: CAKI-1 renal
[6] = tested on: CCRF-CEM leukemia
[7] = tested on: COLO 205 colon
[8] = tested on: DU-145 prostate
[9] = tested on: EKVX NSCLC
[10] = tested on: HCC-2998 colon
[11] = tested on: HCT-116 colon
[12] = tested on: HCT-15 colon
[13] = tested on: HL-60(TB) leukemia
[14] = tested on: HOP-62 NSCLC
[15] = tested on: HOP-92 NSCLC
[16] = tested on: HS 578T breast
[17] = tested on: HT29 colon
[18] = tested on: IGROV1 ovarian
[19] = tested on: K-562 leukemia
[20] = tested on: KM12 colon
[21] = tested on: LOX IMVI melanoma
[22] = tested on: M14 melanoma
[23] = tested on: MALME-3M melanoma
[24] = tested on: MCF7 breast
[25] = tested on: MDA-MB-231 breast
[26] = tested on: MDA-N
[27] = tested on: MOLT-4 leukemia
[28] = tested on: NCI-H226 lung
[29] = tested on: NCI-H23 lung
[30] = tested on: NCI-H460 lung
[31] = tested on: NCI-H522 lung
[32] = tested on: NCI/ADR-RES ovarian
[33] = tested on: OVCAR-3 ovarian
[34] = tested on: OVCAR-4 ovarian
[35] = tested on: OVCAR-8 ovarian
[36] = tested on: PC-3 prostate
[37] = tested on: RPMI-8226 leukemia
[38] = tested on: RXF 393 renal
[39] = tested on: SF-268 CNS
[40] = tested on: SF-295 CNS
[41] = tested on: SF-539 CNS
[42] = tested on: SK-MEL-2 melanoma
[43] = tested on: SK-MEL-28 melanoma
[44] = tested on: SK-MEL-5 melanoma
[45] = tested on: SK-OV-3 ovarian
[46] = tested on: SN12C renal
[47] = tested on: SNB-19 CNS
[48] = tested on: SNB-75 CNS
[49] = tested on: SR leukemia
[50] = tested on: SW-620 colon
[51] = tested on: T-47D breast
[52] = tested on: TK-10 renal
[53] = tested on: U251 CNS
[54] = tested on: UACC-257 melanoma
[55] = tested on: UACC-62 melanoma
[56] = tested on: UO-31 renal
[57] = tested on: MDA-MB-435
[58] = tested on: OVCAR-5 ovarian

Which TGI [1] does the source give for c1ccc(CSC2(SCc3ccccc3)CCCCC2)cc1 here?
The TGI was over 10 µM.

And the TGI [2]?
Its TGI is over 10 µM.

What about the TGI [3] of the same compound?
The TGI was over 10 µM.

What about the TGI [4] of the same compound?
Its TGI is over 10 µM.

What about the TGI [5] of the same compound?
The TGI was over 10 µM.

What about the TGI [6] of the same compound?
Its TGI is over 10 µM.

And the TGI [7]?
The TGI was over 10 µM.

What about the TGI [8] of the same compound?
The TGI was over 10 µM.

And the TGI [9]?
Its TGI is over 10 µM.

And the TGI [10]?
Its TGI is over 10 µM.

What about the TGI [11] of the same compound?
The TGI was over 10 µM.

What about the TGI [12] of the same compound?
The TGI was over 10 µM.

What about the TGI [13] of the same compound?
The TGI was over 10 µM.

What about the TGI [14] of the same compound?
The TGI was over 10 µM.

And the TGI [15]?
The TGI was over 10 µM.

What about the TGI [16] of the same compound?
The TGI was over 10 µM.

And the TGI [17]?
Its TGI is over 10 µM.

What about the TGI [18] of the same compound?
Its TGI is over 10 µM.

What about the TGI [19] of the same compound?
The TGI was over 10 µM.

What about the TGI [20] of the same compound?
The TGI was over 10 µM.

What about the TGI [21] of the same compound?
Its TGI is over 10 µM.

And the TGI [22]?
Its TGI is over 10 µM.

What about the TGI [23] of the same compound?
Its TGI is over 10 µM.

And the TGI [24]?
Its TGI is over 10 µM.

What about the TGI [25] of the same compound?
The TGI was over 10 µM.

What about the TGI [26] of the same compound?
The TGI was over 10 µM.

What about the TGI [27] of the same compound?
Its TGI is over 10 µM.

What about the TGI [28] of the same compound?
Its TGI is over 10 µM.

And the TGI [29]?
The TGI was over 10 µM.

And the TGI [30]?
The TGI was over 10 µM.

And the TGI [31]?
Its TGI is over 10 µM.

What about the TGI [32] of the same compound?
The TGI was over 10 µM.

And the TGI [33]?
The TGI was over 10 µM.

And the TGI [34]?
The TGI was over 10 µM.

And the TGI [35]?
The TGI was over 10 µM.

What about the TGI [36] of the same compound?
Its TGI is over 10 µM.

And the TGI [37]?
Its TGI is over 10 µM.

What about the TGI [38] of the same compound?
Its TGI is over 10 µM.

What about the TGI [39] of the same compound?
The TGI was over 10 µM.

What about the TGI [40] of the same compound?
Its TGI is over 10 µM.

What about the TGI [41] of the same compound?
Its TGI is over 10 µM.

What about the TGI [42] of the same compound?
Its TGI is over 10 µM.

And the TGI [43]?
The TGI was over 10 µM.

What about the TGI [44] of the same compound?
Its TGI is over 10 µM.

And the TGI [45]?
The TGI was over 10 µM.

And the TGI [46]?
Its TGI is over 10 µM.

What about the TGI [47] of the same compound?
The TGI was over 10 µM.

What about the TGI [48] of the same compound?
The TGI was over 10 µM.

What about the TGI [49] of the same compound?
The TGI was over 10 µM.

And the TGI [50]?
Its TGI is over 10 µM.

What about the TGI [51] of the same compound?
Its TGI is over 10 µM.

What about the TGI [52] of the same compound?
The TGI was over 10 µM.

What about the TGI [53] of the same compound?
Its TGI is over 10 µM.

What about the TGI [54] of the same compound?
The TGI was over 10 µM.

What about the TGI [55] of the same compound?
The TGI was over 10 µM.

What about the TGI [56] of the same compound?
Its TGI is over 10 µM.

With COc1ccc(NC(=S)c2ccoc2C)cc1CC(=O)OC(C)C as the compound, how does the TGI [1] read?
Its TGI is over 100 µM.

What about the TGI [3] of the same compound?
Its TGI is over 100 µM.

And the TGI [4]?
Its TGI is over 100 µM.

And the TGI [5]?
The TGI was over 100 µM.

What about the TGI [6] of the same compound?
The TGI was over 100 µM.

And the TGI [7]?
Its TGI is 36.7 µM.

What about the TGI [8] of the same compound?
The TGI was over 100 µM.

And the TGI [9]?
The TGI was over 100 µM.

What about the TGI [10] of the same compound?
Its TGI is over 100 µM.

And the TGI [11]?
The TGI was over 100 µM.

And the TGI [12]?
The TGI was over 100 µM.

What about the TGI [13] of the same compound?
The TGI was 54.5 µM.

What about the TGI [15] of the same compound?
Its TGI is 67.9 µM.

And the TGI [16]?
The TGI was over 100 µM.

What about the TGI [17] of the same compound?
Its TGI is 36.3 µM.

What about the TGI [18] of the same compound?
The TGI was over 100 µM.

And the TGI [19]?
The TGI was over 100 µM.

And the TGI [20]?
Its TGI is over 100 µM.

What about the TGI [21] of the same compound?
The TGI was 39.2 µM.

What about the TGI [22] of the same compound?
Its TGI is 64.3 µM.

What about the TGI [24] of the same compound?
Its TGI is 51.5 µM.

And the TGI [25]?
Its TGI is over 100 µM.

And the TGI [57]?
The TGI was over 100 µM.

What about the TGI [26] of the same compound?
The TGI was over 100 µM.

And the TGI [27]?
The TGI was 80.4 µM.

And the TGI [28]?
Its TGI is 68 µM.

What about the TGI [29] of the same compound?
The TGI was over 100 µM.

And the TGI [30]?
The TGI was over 100 µM.

What about the TGI [31] of the same compound?
The TGI was over 100 µM.

What about the TGI [32] of the same compound?
Its TGI is 58.7 µM.

What about the TGI [33] of the same compound?
The TGI was over 100 µM.

And the TGI [34]?
Its TGI is over 100 µM.

And the TGI [58]?
Its TGI is over 100 µM.

What about the TGI [35] of the same compound?
The TGI was over 100 µM.

What about the TGI [36] of the same compound?
Its TGI is 62.3 µM.

And the TGI [37]?
The TGI was over 100 µM.

What about the TGI [39] of the same compound?
Its TGI is over 100 µM.

What about the TGI [40] of the same compound?
Its TGI is over 100 µM.

What about the TGI [41] of the same compound?
Its TGI is over 100 µM.

What about the TGI [42] of the same compound?
The TGI was 40.6 µM.

And the TGI [43]?
The TGI was over 100 µM.

And the TGI [44]?
The TGI was over 100 µM.

What about the TGI [45] of the same compound?
Its TGI is over 100 µM.

And the TGI [46]?
Its TGI is over 100 µM.

And the TGI [47]?
Its TGI is over 100 µM.

What about the TGI [48] of the same compound?
Its TGI is 93.9 µM.

And the TGI [50]?
Its TGI is over 100 µM.

And the TGI [51]?
Its TGI is over 100 µM.

What about the TGI [52] of the same compound?
Its TGI is over 100 µM.

And the TGI [53]?
The TGI was over 100 µM.

And the TGI [54]?
The TGI was over 100 µM.

What about the TGI [55] of the same compound?
The TGI was over 100 µM.

And the TGI [56]?
Its TGI is over 100 µM.
